pIC50: −log10 of the molar value.
Molecular target: human Nav1.7 (Homo sapiens (Human), UniProt Q15858)
Experiment: FRET-based membrane potential assay, recombinant human sodium channel Nav1.7
Format: cell-based
Conditions: HEK293 cells stably expressing recombinant human Nav1.7; depolarization with veratridine (EC80) + scorpion venom
Description: FRET-Based Membrane Potential Assays.
Recombinant, Human Sodium Channel, Nav1.7.
Two days prior to the experiment, frozen HEK293 cells stably expressing recombinant human Nav1.7 were quickly thawed and plated at 25,000 cells/well in growth medium [DMEM (Invitrogen #11965) with 10% HI FBS (Invitrogen #10082), 2 mM glutamine, 100 units/mL penicillin, 0.1 mg/mL streptomycin (PSG, Sigma #G1146), and 500 μg/mL Geneticin (Invitrogen #10131)] in black-walled, clear-bottom 384-well poly-D-lysine-coated assay plates (Greiner Bio-One, Frickenhausen, Germany) and incubated in a humidified 5% CO2 incubator at 37° C. On the day of the assay, medium was removed by aspiration, and cells were washed with assay buffer [HBSS (Invitrogen, Carlsbad, Calif.) containing 20 mM HEPES (Invitrogen, Carlsbad, Calif.)]. After washing, 30 μL assay buffer containing the fluorescent voltage-sensor probe CC2-DMPE (Invitrogen, Carlsbad, Calif.) at 20 μM and 0.01% pluronic F-127 (Invitrogen, Carlsbad, Calif.) was added to the cells. Cells were incubated for 40 minutes at room temperature in the dark. Following the incubation, the cells were washed and 30 μL assay buffer containing 2.5 μM DiSBAC2(3) substrate (Invitrogen, Carlsbad, Calif.) and 0.5 mM VABSC-1 (Invitrogen, Carlsbad, Calif.) was added to the cells. The cells were incubated for 90 minutes at room temperature in the dark. Fluorescence readings were made using a FLIPR®^TETRA (Molecular Devices, Sunnyvale Calif.) equipped with voltage-sensor probe optics. At the start of each experiment the optimal (EC80) concentration of depolarizing agent (veratridine) was determined by testing a dilution curve of assay buffer containing veratridine (Sigma-Aldrich, St. Louis, Mo.) and 1 mg/mL scorpion venom (SVqq, from Leiurus quinquestriatus; Sigma-Aldrich, St. Louis, Mo.). […] Test compounds in the daughter plate were diluted to (˜3×) solutions in assay buffer immediately before assaying. Using the FLIPR®^TETRA, 20 μL of the (3×) compound solutions were first added to the cells, then 20 μL of depolarizing solution (3×EC80 veratridine+SVqq) were added 3 minutes later to activate the channel. Changes in fluorescence were measured at wavelengths of 440-480 nm and 565-625 nm over the course of the experimental run. Membrane depolarization was expressed as a ratio of the maximum F440-480 nm/F565-625 nm reading above average baseline F440-480 nm/F565-625 nm reading. IC50 values were calculated from curve fits of the ratio data using a four-parameter logistic Hill equation (Accelrys Assay Explorer 3.3 Client, Accelrys, San Diego, Calif.) with percent inhibition plotted against compound concentration.

Chain of human Nav1.7 (Q15858 whole entry): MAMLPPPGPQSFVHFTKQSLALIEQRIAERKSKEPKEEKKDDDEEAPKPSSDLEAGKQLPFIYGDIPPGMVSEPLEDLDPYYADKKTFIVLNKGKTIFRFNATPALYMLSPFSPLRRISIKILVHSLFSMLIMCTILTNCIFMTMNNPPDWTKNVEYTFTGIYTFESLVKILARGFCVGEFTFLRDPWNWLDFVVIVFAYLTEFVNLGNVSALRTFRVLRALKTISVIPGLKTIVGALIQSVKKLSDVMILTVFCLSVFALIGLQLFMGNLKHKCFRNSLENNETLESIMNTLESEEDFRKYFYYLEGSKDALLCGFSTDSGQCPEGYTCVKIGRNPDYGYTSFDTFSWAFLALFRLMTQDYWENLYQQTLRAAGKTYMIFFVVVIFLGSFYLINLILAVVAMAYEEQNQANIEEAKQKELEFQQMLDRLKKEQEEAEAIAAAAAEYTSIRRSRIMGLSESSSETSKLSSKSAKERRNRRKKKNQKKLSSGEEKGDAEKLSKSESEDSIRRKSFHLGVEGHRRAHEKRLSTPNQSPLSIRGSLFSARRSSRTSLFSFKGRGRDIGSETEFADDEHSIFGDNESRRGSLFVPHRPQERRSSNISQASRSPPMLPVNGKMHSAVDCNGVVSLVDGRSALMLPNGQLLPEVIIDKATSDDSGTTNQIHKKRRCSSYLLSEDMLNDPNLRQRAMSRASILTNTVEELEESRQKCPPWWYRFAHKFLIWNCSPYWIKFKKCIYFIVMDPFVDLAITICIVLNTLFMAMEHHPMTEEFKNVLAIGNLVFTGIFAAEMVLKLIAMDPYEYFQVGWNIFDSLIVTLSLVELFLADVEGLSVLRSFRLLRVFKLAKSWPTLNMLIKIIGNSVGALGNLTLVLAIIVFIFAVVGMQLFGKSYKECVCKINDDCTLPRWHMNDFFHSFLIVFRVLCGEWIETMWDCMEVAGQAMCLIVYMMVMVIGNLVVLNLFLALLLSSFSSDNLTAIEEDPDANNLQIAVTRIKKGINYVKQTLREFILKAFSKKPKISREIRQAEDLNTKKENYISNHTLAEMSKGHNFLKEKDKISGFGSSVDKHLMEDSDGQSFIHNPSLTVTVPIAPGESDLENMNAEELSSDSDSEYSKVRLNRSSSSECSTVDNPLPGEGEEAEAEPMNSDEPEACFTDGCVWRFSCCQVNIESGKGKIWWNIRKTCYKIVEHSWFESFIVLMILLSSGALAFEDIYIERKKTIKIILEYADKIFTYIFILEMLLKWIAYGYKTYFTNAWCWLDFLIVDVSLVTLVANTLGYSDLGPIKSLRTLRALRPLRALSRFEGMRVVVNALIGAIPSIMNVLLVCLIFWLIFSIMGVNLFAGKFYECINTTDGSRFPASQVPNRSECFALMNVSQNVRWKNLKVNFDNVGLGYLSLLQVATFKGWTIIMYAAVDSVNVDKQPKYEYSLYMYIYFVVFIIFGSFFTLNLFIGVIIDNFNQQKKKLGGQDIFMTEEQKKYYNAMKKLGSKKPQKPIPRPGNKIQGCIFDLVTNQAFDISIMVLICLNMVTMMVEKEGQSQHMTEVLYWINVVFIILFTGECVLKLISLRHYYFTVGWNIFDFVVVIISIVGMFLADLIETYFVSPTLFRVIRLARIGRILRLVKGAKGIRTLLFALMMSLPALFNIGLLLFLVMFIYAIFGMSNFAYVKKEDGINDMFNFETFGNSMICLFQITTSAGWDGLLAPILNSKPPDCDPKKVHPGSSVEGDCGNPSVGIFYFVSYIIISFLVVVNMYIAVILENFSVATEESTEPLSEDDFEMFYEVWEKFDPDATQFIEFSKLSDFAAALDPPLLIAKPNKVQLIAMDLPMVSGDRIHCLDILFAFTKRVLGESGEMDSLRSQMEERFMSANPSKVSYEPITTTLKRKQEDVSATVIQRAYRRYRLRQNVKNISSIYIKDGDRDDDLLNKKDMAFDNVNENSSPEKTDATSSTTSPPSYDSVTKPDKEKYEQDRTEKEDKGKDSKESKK

Row | Compound | pIC50
1 | O=C(CN1CCN(c2cccc3c2cnn3-c2ccccn2)C1=O)N1CCCC1 [Example 278, 1-[2-oxo-2-(pyrrolidin-1-yl)ethyl]-3-[1-(pyridin-2-yl)-1H-indazol-4-yl]imidazolidin-2-one] | 5.24
2 | CCS(=O)(=O)N1CCN(c2cccc3c2cnn3-c2ccccc2F)C1=O [Example 83, 1-(ethylsulfonyl)-3-[1-(2-fluorophenyl)-1H-indazol-4-yl]imidazolidin-2-one] | 4.70
3 | O=C1N(c2cccc3c2cnn3-c2ccccc2F)CCN1[C@H]1CC[C@H](O)CC1 [Example 265, 1-[1-(2-fluorophenyl)-1H-indazol-4-yl]-3-(trans-4-hydroxycyclohexyl)imidazolidin-2-one] | 5.09
4 | NC(=O)Cn1ccn(-c2cccc3c2cnn3-c2ccccc2F)c1=O [Example 9, 2-{3-[1-(2-fluorophenyl)-1H-indazol-4-yl]-2-oxo-2,3-dihydro-1H-imidazol-1-yl}acetamide] | 6.02
5 | O=C1N(c2cccc3c2cnn3-c2ccccc2F)CCN1S(=O)(=O)C1CCCC1 [Example 77, 1-(cyclopentylsulfonyl)-3-[1-(2-fluorophenyl)-1H-indazol-4-yl]imidazolidin-2-one] | 5.55
6 | O=C1N(c2cccc3c2cnn3-c2ccccc2F)CCN1S(=O)(=O)c1cccs1 [Example 79, 1-[1-(2-fluorophenyl)-1H-indazol-4-yl]-3-(2-thienylsulfonyl)imidazolidin-2-one] | 5.64
7 | CC(C)(O)[C@H]1CCN(C(=O)CN2CCN(c3cccc4c3cnn4-c3ccccc3F)C2=O)C1 [Example 85, 1-[1-(2-fluorophenyl)-1H-indazol-4-yl]-3-{2-[(3S)-3-(2-hydroxypropan-2-yl)pyrrolidin-1-yl]-2-oxoethyl}imidazolidin-2-one] | 4.91
8 | CS(=O)(=O)N1CCN(c2cccc3c2cnn3-c2ccccc2F)C1=O [Example 6, 1-[1-(2-fluorophenyl)-1H-indazol-4-yl]-3-(methylsulfonyl)imidazolidin-2-one] | 5.89
9 | C[C@H]1CCCN1C(=O)CN1CCCN(c2cccc3c2cnn3-c2ccccc2F)C1=O [Example 187, 1-[1-(2-fluorophenyl)-1H-indazol-4-yl]-3-{2-[(2S)-2-methylpyrrolidin-1-yl]-2-oxoethyl}tetrahydropyrimidin-2(1H)-one] | 5.72
10 | O=C1N(Cc2ccncc2)CCN1c1cccc2c1cnn2-c1ccccc1F [Example 210, 1-[1-(2-fluorophenyl)-1H-indazol-4-yl]-3-(pyridin-4-ylmethyl)imidazolidin-2-one] | 5.48
11 | Cc1nocc1CN1CCN(c2cccc3c2cnn3-c2ccccc2F)C1=O [Example 264, 1-[1-(2-fluorophenyl)-1H-indazol-4-yl]-3-[(3-methyl-1,2-oxazol-4-yl)methyl]imidazolidin-2-one] | 5.47
12 | O=C(CN1CCN(c2cccc3c2cnn3-c2ccccc2F)C1=O)c1cccnc1 [Example 152, 1-[1-(2-fluorophenyl)-1H-indazol-4-yl]-3-[2-oxo-2-(pyridin-3-yl)ethyl]imidazolidin-2-one] | 5.65
13 | O=C1N(Cc2cc(C(F)(F)F)ccn2)CCN1c1cccc2c1cnn2-c1ccccc1F [Example 97, 1-[1-(2-fluorophenyl)-1H-indazol-4-yl]-3-{[4-(trifluoromethyl)pyridin-2-yl]methyl}imidazolidin-2-one] | 5.62
14 | O=C(CN1CCN(c2cccc3c2cnn3-c2ccccc2F)C1=O)N1CCC2(C1)OCCO2 [Example 102, 1-[2-(1,4-dioxa-7-azaspiro[4.4]non-7-yl)-2-oxoethyl]-3-[1-(2-fluorophenyl)-1H-indazol-4-yl]imidazolidin-2-one] | 5.46
15 | O=C1N(Cc2cnco2)CCN1c1cccc2c1cnn2-c1ccccc1F [Example 231, 1-[1-(2-fluorophenyl)-1H-indazol-4-yl]-3-(1,3-oxazol-5-ylmethyl)imidazolidin-2-one] | 5.44
16 | O=C1N(c2cncc(N3CCOCC3)c2)CCN1c1cccc2c1cnn2-c1ccccc1F [Example 207, 1-[1-(2-fluorophenyl)-1H-indazol-4-yl]-3-[5-(morpholin-4-yl)pyridin-3-yl]imidazolidin-2-one] | 5.73

Row | Compound | pIC50
17 | COC[C@H]1CCCN1C(=O)CN1CCN(c2cccc3c2cnn3-c2ccccc2F)C1=O [Example 170, 1-[1-(2-fluorophenyl)-1H-indazol-4-yl]-3-{2-[(2R)-2-(methoxymethyl)pyrrolidin-1-yl]-2-oxoethyl}imidazolidin-2-one] | 6.10
18 | O=C1N(CC(=O)N2CCOC3CCCCC32)CCN1c1cccc2c1cnn2-c1ccccc1F (stereo not shown) [Example 105, 1-[1-(2-fluorophenyl)-1H-indazol-4-yl]-3-[2-(octahydro-4H-1,4-benzoxazin-4-yl)-2-oxoethyl]imidazolidin-2-one] | 5.88
19 | CCc1nnc(CN2CCN(c3cccc4c3cnn4-c3ccccc3F)C2=O)o1 [Example 261, 1-[(5-ethyl-1,3,4-oxadiazol-2-yl)methyl]-3-[1-(2-fluorophenyl)-1H-indazol-4-yl]imidazolidin-2-one] | 5.47
20 | Cc1cnc(CN2CCN(c3cccc4c3cnn4-c3ccccc3F)C2=O)s1 [Example 263, 1-[1-(2-fluorophenyl)-1H-indazol-4-yl]-3-[(5-methyl-1,3-thiazol-2-yl)methyl]imidazolidin-2-one] | 6.31
21 | CC(=O)CN1CCN(c2cccc3c2cnn3-c2ccccc2F)C1=O [Example 145, 1-[1-(2-fluorophenyl)-1H-indazol-4-yl]-3-(2-oxopropyl)imidazolidin-2-one] | 5.21
22 | CN1C(=O)[C@H]2CN(C(=O)CN3CCN(c4cccc5c4cnn5-c4ccccc4F)C3=O)C[C@H]2C1=O [Example 108, (3aR,6aS)-5-({3-[1-(2-fluorophenyl)-1H-indazol-4-yl]-2-oxoimidazolidin-1-yl}acetyl)-2-methyltetrahydropyrrolo[3,4-c]pyrrole-1,3(2H,3aH)-dione] | 4.91
23 | O=C(CN1CCN(c2cccc3c2cnn3-c2ccccc2F)C1=O)NCc1cc(F)cc(F)c1 [Example 177, N-(3,5-difluorobenzyl)-2-{3-[1-(2-fluorophenyl)-1H-indazol-4-yl]-2-oxoimidazolidin-1-yl}acetamide] | 6.02
24 | O=C1CN(C(=O)CN2CCN(c3cccc4c3cnn4-c3ccccc3F)C2=O)CC(=O)N1 [Example 103, 4-({3-[1-(2-fluorophenyl)-1H-indazol-4-yl]-2-oxoimidazolidin-1-yl}acetyl)piperazine-2,6-dione] | 5.44
25 | Cc1nc(CN2CCN(c3cccc4c3cnn4-c3ccc(F)cc3F)C2=O)cs1 [Example 243, 1-[1-(2,4-difluorophenyl)-1H-indazol-4-yl]-3-[(2-methyl-1,3-thiazol-4-yl)methyl]imidazolidin-2-one] | 5.79
26 | O=C1N(CC(=O)N2CC3CCC2C3)CCN1c1cccc2c1cnn2-c1ccccc1F (stereo not shown) [Example 202, 1-[2-(2-azabicyclo[2.2.1]hept-2-yl)-2-oxoethyl]-3-[1-(2-fluorophenyl)-1H-indazol-4-yl]imidazolidin-2-one] | 6.17
27 | CC1(C)CCCN1C(=O)CN1CCN(c2cccc3c2cnn3-c2ccccc2F)C1=O [Example 172, 1-[2-(2,2-dimethylpyrrolidin-1-yl)-2-oxoethyl]-3-[1-(2-fluorophenyl)-1H-indazol-4-yl]imidazolidin-2-one] | 5.59
28 | CC(C)CCCC(=O)CN1CCN(c2cccc3c2cnn3-c2ccccc2F)C1=O [Example 132, 1-[1-(2-fluorophenyl)-1H-indazol-4-yl]-3-(6-methyl-2-oxoheptyl)imidazolidin-2-one] | 6.15
29 | O=C1N(CC2CC2)CCN1c1cccc2c1cnn2-c1ccccc1F [Example 194, 1-(cyclopropylmethyl)-3-[1-(2-fluorophenyl)-1H-indazol-4-yl]imidazolidin-2-one] | 6.21
30 | O=C1N(Cc2cocn2)CCCN1c1cccc2c1cnn2-c1ccccc1F [Example 225, 1-[1-(2-fluorophenyl)-1H-indazol-4-yl]-3-(1,3-oxazol-4-ylmethyl)tetrahydropyrimidin-2(1H)-one] | 4.85
31 | Cc1nc(CN2CCN(c3cccc4c3cnn4-c3ccccc3F)C2=O)co1 [Example 211, 1-[1-(2-fluorophenyl)-1H-indazol-4-yl]-3-[(2-methyl-1,3-oxazol-4-yl)methyl]imidazolidin-2-one] | 5.72
